The nature of assay [1]: In vitro cytotoxic activity was evaluated by microtubule assembly assay relative to taxol; ED50/ED50. The class given is functional.
The test system of assay [2] is B16. Put plainly: In vitro cytotoxic activity was evaluated against B16 melanoma cells relative to taxol; ED50/ED50. It is filed as functional.

Our source for the Ratio values is ChEMBL document CHEMBL1127747, “The effect of the aromatic rings of taxol on biological activity and solution conformation: synthesis and evaluation of saturated taxol and taxotere analogues” (1994).

In the case of `CC(=O)O[C@H]1C(=O)[C@@]2(C)C([C@H](OC(=O)C3CCCCC3)[C@]3(O)C[C@H](OC(=O)[C@H](O)C(NC(=O)C4CCCCC4)C4CCCCC4)C(C)=C1C3(C)C)[C@]1(OC(C)=O)CO[C@@H]1C[C@@H]2O` (some centres not stated), the Ratio came out at 0.47 in assay [1] and 1.6 in assay [2].
On the same counts, the results for `CC(=O)O[C@H]1C(=O)[C@@]2(C)C([C@H](OC(=O)c3ccccc3)[C@]3(O)C[C@H](OC(=O)[C@H](O)C(NC(=O)c4ccccc4)C4CCCCC4)C(C)=C1C3(C)C)[C@]1(OC(C)=O)CO[C@@H]1C[C@@H]2O` (some centres not stated) are 0.29 and 0.91.
Taken in the same sequence, the figures for `CC(=O)O[C@H]1C(=O)[C@@]2(C)C([C@H](OC(=O)c3ccccc3)[C@]3(O)C[C@H](OC(=O)[C@H](O)C(NC(=O)OC(C)(C)C)c4ccccc4)C(C)=C1C3(C)C)[C@]1(OC(C)=O)CO[C@@H]1C[C@@H]2O` (some centres not stated) were 0.55 and 0.23.
Taken in the same sequence, the figures for `CC(=O)O[C@H]1C(=O)[C@@]2(C)C([C@H](OC(=O)C3CCCCC3)[C@]3(O)C[C@H](OC(=O)[C@H](O)C(NC(=O)OC(C)(C)C)c4ccccc4)C(C)=C1C3(C)C)[C@]1(OC(C)=O)CO[C@@H]1C[C@@H]2O` (some centres not stated) were 0.67 and 1.1.
With `CC(=O)O[C@@]12CO[C@@H]1C[C@H](O)[C@@]1(C)C(=O)[C@H](O)C3=C(C)[C@@H](OC(=O)[C@H](O)[C@@H](NC(=O)OC(C)(C)C)c4ccccc4)C[C@@](O)([C@@H](OC(=O)c4ccccc4)[C@H]21)C3(C)C.O.O.O` [DOCETAXEL], the Ratio in assay [1] is recorded as 0.45; in assay [2], 0.41.
For `CC(=O)O[C@H]1C(=O)[C@@]2(C)[C@H]([C@H](OC(=O)c3ccccc3)[C@]3(O)C[C@H](OC(=O)[C@H](O)[C@@H](NC(=O)c4ccccc4)c4ccccc4)C(C)=C1C3(C)C)[C@]1(OC(C)=O)CO[C@@H]1C[C@@H]2O` [PACLITAXEL], the Ratio in assay [1] and in assay [2] was 1 in each case.
